{"source": "patent US5428175A", "about": "(priority 1993, dated 1995)", "key": {"[1]": {"system": "Human epidermoid carcinoma (oral) cell KB", "assay": "Cytocidal activity of HS-1 for KB cells (MTT)", "type": "cell-based", "conditions": "72 hours, absorption at 540 nm, read-out: TC50 (the source's name)", "protocol": "Human epidermoid carcinoma (oral) cell KB was inoculated into 96-well microplates (4000 cells/200 μl/well) and cultured in DMEM medium (containing 5% FCS) in 5% CO2 at 37° C. for 24 hours. 5 μl of HS-1 solutions in DMSO at various HS-1 concentrations were added to above culture. After the culture incubated for 72 hours, 10 μl of a 2.5 mg/ml MTT solution was added and incubator was continued for a further 4 hours, thus producing formazan. After the addition of 200 μl of DMSO, the absorption at 540 nm was measured using an imunoreader. The cytocidal activity of HS-1 for KB cells was determined from the ratio of the absorption of the compound to the absorption of the control."}, "[2]": {"system": "Bacillus subtilis rec +", "assay": "Antimicrobial activity, paper disc inhibition zone", "type": "cell-based", "conditions": "40 μg/disc, 8 mm paper disc; Bacillus subtilis rec + (wild strain)", "protocol": "(§1) Antimicrobial activity of HS-1 was examined using eleven kinds of bacteria, fungi, and yeasts using paper discs with a diameter of 8 mm, at a concentration of 40 μg/disc. The results are shown in Table 3, wherein the antimicrobial activity of HS-1 is indicated as the diameter of the inhibition zone."}, "[3]": {"system": "Bacillus subtilis rec -", "assay": "Antimicrobial activity, paper disc inhibition zone", "type": "cell-based", "conditions": "40 μg/disc, 8 mm paper disc; Bacillus subtilis rec - (repair activity defective strain)", "protocol": "as §1"}, "[4]": {"system": "Escherichia coli BE 1196", "assay": "Antimicrobial activity, paper disc inhibition zone", "type": "cell-based", "conditions": "BE1196, 40 μg/disc, 8 mm paper disc", "protocol": "as §1"}, "[5]": {"system": "Escherichia coli AB 1157", "assay": "Antimicrobial activity, paper disc inhibition zone", "type": "cell-based", "conditions": "AB1157, 40 μg/disc, 8 mm paper disc", "protocol": "as §1"}, "[6]": {"system": "Schizosaccharomyces pombe IFO 0638", "assay": "Antimicrobial activity, paper disc inhibition zone", "type": "cell-based", "conditions": "IFO0638, 40 μg/disc, 8 mm paper disc", "protocol": "as §1"}, "[7]": {"system": "Staphylococcus aureus IFO 12732", "assay": "Antimicrobial activity, paper disc inhibition zone", "type": "cell-based", "conditions": "IFO12732, 40 μg/disc, 8 mm paper disc", "protocol": "as §1"}, "[8]": {"system": "Botrytis cinerea IFO 5365", "assay": "Antimicrobial activity, paper disc inhibition zone", "type": "cell-based", "conditions": "IFO5365, 40 μg/disc, 8 mm paper disc", "protocol": "as §1"}, "[9]": {"system": "Pseudomonas aeruginosa N-10 (L-form)", "assay": "Antimicrobial activity, paper disc inhibition zone", "type": "cell-based", "conditions": "40 μg/disc, 8 mm paper disc", "protocol": "as §1"}, "[10]": {"system": "Xanthomonas citri IFO 3781", "assay": "Antimicrobial activity, paper disc inhibition zone", "type": "cell-based", "conditions": "IFO3781, 40 μg/disc, 8 mm paper disc", "protocol": "as §1"}, "[11]": {"system": "Mycobacterium phlei IFO 11158", "assay": "Antimicrobial activity, paper disc inhibition zone", "type": "cell-based", "conditions": "Mycolicibacterium phlei, IFO11158, 40 μg/disc, 8 mm paper disc", "protocol": "as §1"}, "[12]": {"system": "Xanthomonas oryzae IFO 331.2", "assay": "microbe, parasite or virus in culture", "type": "cell-based", "conditions": "IFO331, read-out: Inhibition zone"}, "[13]": {"assay": "Solubility", "type": "physicochemical"}, "[14]": {"conditions": "known from the literature; cited from earlier work"}}}
{"smiles": "O=C1N=C(c2c[nH]c3ccccc23)C=C1c1c[nH]c2ccccc12", "note": "[HS-1]", "values": [{"measurement": "IC50", "setting": "[1]", "result": 0.68, "unit": "µg/mL"}, {"measurement": "zone of inhibition at 40 µg/disc", "setting": "[2]", "result": 0, "unit": "mm"}, {"measurement": "zone of inhibition at 40 µg/disc", "setting": "[3]", "result": "< 10", "unit": "mm"}, {"measurement": "zone of inhibition at 40 µg/disc", "setting": "[4]", "result": 0, "unit": "mm"}, {"measurement": "zone of inhibition at 40 µg/disc", "setting": "[5]", "result": 0, "unit": "mm"}, {"measurement": "zone of inhibition at 40 µg/disc", "setting": "[6]", "result": 0, "unit": "mm"}, {"measurement": "zone of inhibition at 40 µg/disc", "setting": "[7]", "result": 0, "unit": "mm"}, {"measurement": "zone of inhibition at 40 µg/disc", "setting": "[8]", "result": 0, "unit": "mm"}, {"measurement": "zone of inhibition at 40 µg/disc", "setting": "[9]", "result": "< 10", "unit": "mm"}, {"measurement": "zone of inhibition at 40 µg/disc", "setting": "[10]", "result": 0, "unit": "mm"}, {"measurement": "zone of inhibition at 40 µg/disc", "setting": "[11]", "result": 0, "unit": "mm"}, {"measurement": "zone of inhibition at 40 µg/disc", "setting": "[12]", "result": 11.9, "unit": "mm"}, {"measurement": "Solubility", "setting": "[13]; in dimethyl sulfoxide", "result": "Readily soluble"}, {"measurement": "Solubility", "setting": "[13]; in methanol", "result": "scarcely soluble"}, {"measurement": "Solubility", "setting": "[13]; in water", "result": "insoluble"}]}
{"smiles": "O=C1NC(c2c[nH]c3ccc(O)cc23)=C/C1=C1\\C(=O)Nc2ccccc21", "note": "[violacein]", "values": [{"measurement": "antimicrobial and antiprotozoal activities", "setting": "[14]", "result": "known to exhibit antimicrobial and antiprotozoal activities"}]}
